# From patent US9006188B2, “Co-crystals of dapagliflozin” (Mapi Pharma Ltd., priority 2013, dated 2015)
# Read-outs that look alike come from different tables or passages of the source.
# Key:
# [1] = Hygroscopicity by Dynamic Vapor Sorption (DVS), sorption/desorption profile; assay type: physicochemical; conditions: for appearance of sample after DVS testing: after DVS at 25° C., 0-95% relative humidity
# Procedure: (§1) The preparation of lactose co-crystal and asparagine co-crystal were scaled up and repeated (about 400 mg of dapagliflozin free form was dissolved in 26 ml of IPA) and XRPD, PLM, TGA, DSC, NMR and DVS analyses were conducted for physicochemical properties evaluation. Before physicochemical properties evaluation, the solids precipitated out were isolated and dried off at 40° C. for 4 hours in vacuum drier. After hygroscopicity test, the sample was retested by XRPD to determine if any form transformation during the DVS test.
# (§2) The sorption/desorption profiles of dapagliflozin Form I were tested at 25° C. under 0-95% relative humidity. […] This sample was tested by XRPD.
# [2] = XRPD after DVS at 25° C., 0-95% relative humidity
# Procedure: as §1, §2
# [3] = −20° C., tightly closed, 1.5 month
# Procedure: Dapagliflozin was stored at −20° C., tightly closed. After being stored for 1.5 month, it was characterized by XRPD, MDSC and TGA to check if it is stable.
# [4] = DVS 25° C., cycle 1, target 0.0 % P/Po
# [5] = DVS 25° C., cycle 1, target 5.0 % P/Po
# [6] = DVS 25° C., cycle 1, target 10.0 % P/Po
# [7] = DVS 25° C., cycle 1, target 15.0 % P/Po
# [8] = DVS 25° C., cycle 1, target 20.0 % P/Po
# [9] = DVS 25° C., cycle 1, target 25.0 % P/Po
# [10] = DVS 25° C., cycle 1, target 30.0 % P/Po
# [11] = DVS 25° C., cycle 1, target 35.0 % P/Po
# [12] = DVS 25° C., cycle 1, target 40.0 % P/Po
# [13] = DVS 25° C., cycle 1, target 45.0 % P/Po
# [14] = DVS 25° C., cycle 1, target 50.0 % P/Po
# [15] = DVS 25° C., cycle 1, target 55.0 % P/Po
# [16] = DVS 25° C., cycle 1, target 60.0 % P/Po
# [17] = DVS 25° C., cycle 1, target 65.0 % P/Po
# [18] = DVS 25° C., cycle 1, target 70.0 % P/Po
# [19] = DVS 25° C., cycle 1, target 75.0 % P/Po
# [20] = DVS 25° C., cycle 1, target 80.0 % P/Po
# [21] = DVS 25° C., cycle 1, target 85.0 % P/Po
# [22] = DVS 25° C., cycle 1, target 90.0 % P/Po
# [23] = DVS 25° C., cycle 1, target 95.0 % P/Po
structure (smiles),measurement,setting,value
"CCOc1ccc(Cc2cc([C@@H]3O[C@H](CO)[C@@H](O)[C@H](O)[C@H]3O)ccc2Cl)cc1 [Form I, (2S,3R,4R,5S,6R)-2-[4-chloro-3-(4-ethoxybenzyl)phenyl]-6-(hydroxymethyl)tetrahydro-2H-pyran-3,4,5-triol, reference compound]",weight gain from 0 to 95% RH,"[1]; DVS 25° C., 0 to 95% RH",23.33%
same,"Change In Mass (%) - ref, Desorption",[1]; [4],10.18%
same,"Change In Mass (%) - ref, Sorption",[1]; [4],0.00%
same,"Change In Mass (%) - ref, Desorption",[1]; [5],10.26%
same,"Change In Mass (%) - ref, Hysteresis",[1]; [5],10.18%
same,"Change In Mass (%) - ref, Sorption",[1]; [5],0.09%
same,"Change In Mass (%) - ref, Desorption",[1]; [6],10.34%
same,"Change In Mass (%) - ref, Hysteresis",[1]; [6],10.20%
same,"Change In Mass (%) - ref, Sorption",[1]; [6],0.14%
same,"Change In Mass (%) - ref, Desorption",[1]; [7],10.42%
same,"Change In Mass (%) - ref, Hysteresis",[1]; [7],10.19%
same,"Change In Mass (%) - ref, Sorption",[1]; [7],0.23%
same,"Change In Mass (%) - ref, Desorption",[1]; [8],10.50%
same,"Change In Mass (%) - ref, Hysteresis",[1]; [8],10.20%
same,"Change In Mass (%) - ref, Sorption",[1]; [8],0.30%
same,"Change In Mass (%) - ref, Desorption",[1]; [9],10.58%
same,"Change In Mass (%) - ref, Hysteresis",[1]; [9],10.16%
same,"Change In Mass (%) - ref, Sorption",[1]; [9],0.41%
same,"Change In Mass (%) - ref, Desorption",[1]; [10],10.66%
same,"Change In Mass (%) - ref, Hysteresis",[1]; [10],10.10%
same,"Change In Mass (%) - ref, Sorption",[1]; [10],0.55%
same,"Change In Mass (%) - ref, Desorption",[1]; [11],10.74%
same,"Change In Mass (%) - ref, Hysteresis",[1]; [11],9.91%
same,"Change In Mass (%) - ref, Sorption",[1]; [11],0.83%
same,"Change In Mass (%) - ref, Desorption",[1]; [12],10.83%
same,"Change In Mass (%) - ref, Hysteresis",[1]; [12],9.65%
same,"Change In Mass (%) - ref, Sorption",[1]; [12],1.18%
same,"Change In Mass (%) - ref, Desorption",[1]; [13],10.97%
same,"Change In Mass (%) - ref, Hysteresis",[1]; [13],9.22%
same,"Change In Mass (%) - ref, Sorption",[1]; [13],1.75%
same,"Change In Mass (%) - ref, Desorption",[1]; [14],11.15%
same,"Change In Mass (%) - ref, Hysteresis",[1]; [14],8.85%
same,"Change In Mass (%) - ref, Sorption",[1]; [14],2.31%
same,"Change In Mass (%) - ref, Desorption",[1]; [15],11.35%
same,"Change In Mass (%) - ref, Hysteresis",[1]; [15],8.46%
same,"Change In Mass (%) - ref, Sorption",[1]; [15],2.89%
same,"Change In Mass (%) - ref, Desorption",[1]; [16],11.59%
same,"Change In Mass (%) - ref, Hysteresis",[1]; [16],8.05%
same,"Change In Mass (%) - ref, Sorption",[1]; [16],3.54%
same,"Change In Mass (%) - ref, Desorption",[1]; [17],11.95%
same,"Change In Mass (%) - ref, Hysteresis",[1]; [17],7.67%
same,"Change In Mass (%) - ref, Sorption",[1]; [17],4.27%
same,"Change In Mass (%) - ref, Desorption",[1]; [18],12.47%
same,"Change In Mass (%) - ref, Hysteresis",[1]; [18],7.53%
same,"Change In Mass (%) - ref, Sorption",[1]; [18],4.94%
same,"Change In Mass (%) - ref, Desorption",[1]; [19],13.23%
same,"Change In Mass (%) - ref, Hysteresis",[1]; [19],7.02%
same,"Change In Mass (%) - ref, Sorption",[1]; [19],6.21%
same,"Change In Mass (%) - ref, Desorption",[1]; [20],14.44%
same,"Change In Mass (%) - ref, Hysteresis",[1]; [20],5.71%
same,"Change In Mass (%) - ref, Sorption",[1]; [20],8.73%
same,"Change In Mass (%) - ref, Desorption",[1]; [21],16.99%
same,"Change In Mass (%) - ref, Hysteresis",[1]; [21],4.90%
same,"Change In Mass (%) - ref, Sorption",[1]; [21],12.09%
same,"Change In Mass (%) - ref, Desorption",[1]; [22],21.36%
same,"Change In Mass (%) - ref, Hysteresis",[1]; [22],4.66%
same,"Change In Mass (%) - ref, Sorption",[1]; [22],16.70%
same,"Change In Mass (%) - ref, Desorption",[1]; [23],23.33%
same,"Change In Mass (%) - ref, Sorption",[1]; [23],23.33%
same,appearance of sample after DVS testing,[1],thick gel
same,appearance of sample after DVS testing,[1]; listed as dapagliflozin Form I,thick gel-like material
same,hygroscopicity classification,[1]; based on DVS weight gain from 0 to 95% RH,very hygroscopic
same,form transformation after DVS test (XRPD),[2],an amorphous form (not containing the 32 deg peak) was detected
same,form transformation after DVS test (XRPD),[2]; listed as dapagliflozin Form I,the amorphous was found after testing DVS
same,"stability on storage (form transformation by XRPD, MDSC, TGA)",[3],stable
same,"stability on storage (form transformation by XRPD, MDSC, TGA)",[3]; listed as Dapagliflozin,no form transformation was detected
